Measured values published in patent US7674801B2 (AstraZeneca AB, priority 2006, dated 2010).
≈ marks a conversion by molar mass, not a printed value.

How the values were obtained:
[1] = target: S. aureus (SAU) GyrB ATPase (Staphylococcus aureus, UniProt P0A0K8); test: S. aureus GyrB ATPase inhibition, ammonium molybdate/malachite green phosphate detection assay; assay type: biochemical; conditions: read-out: S. aureus (SAU) GyrB ATPase % Inhibition, compound concentration 12.5 μM
How it was run: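 E. coli GyrA and S. aureus GyrB (1.25 nM each) with 500 μM ATP and 5 μg/ml sheared salmon sperm DNA in 50 mM Hepes pH 7.5, 8.0 mM MgCl2. Released phosphate detected with ammonium molybdate/malachite green at 650 nm; 2% DMSO as 0% and 2 μM novobiocin as 100% inhibition; IC50 from 10 concentrations.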

[2] = test system: Streptococcus pneumoniae; test: Bacterial susceptibility testing in liquid media (MIC); assay type: cell-based; conditions: 37° C., 24 hrs
Method: Compounds were tested for antimicrobial activity by susceptibility testing in liquid media. Compounds were dissolved in dimethylsulfoxide and tested in 10 doubling dilutions in the susceptibility assays. The organisms used in the assay were grown overnight on suitable agar media and then suspended in a liquid medium appropriate for the growth of the organism. The suspension was a 0.5 McFarland and a further 1 in 10 dilution was made into the same liquid medium to prepare the final organism suspension in 100 μL. Plates were incubated under appropriate conditions at 37° C. for 24 hrs prior to reading. The Minimum Inhibitory Concentration was determined as the lowest drug concentration able to reduce growth by 80% or more.

Chain of S. aureus (SAU) GyrB ATPase (P0A0K8 whole entry): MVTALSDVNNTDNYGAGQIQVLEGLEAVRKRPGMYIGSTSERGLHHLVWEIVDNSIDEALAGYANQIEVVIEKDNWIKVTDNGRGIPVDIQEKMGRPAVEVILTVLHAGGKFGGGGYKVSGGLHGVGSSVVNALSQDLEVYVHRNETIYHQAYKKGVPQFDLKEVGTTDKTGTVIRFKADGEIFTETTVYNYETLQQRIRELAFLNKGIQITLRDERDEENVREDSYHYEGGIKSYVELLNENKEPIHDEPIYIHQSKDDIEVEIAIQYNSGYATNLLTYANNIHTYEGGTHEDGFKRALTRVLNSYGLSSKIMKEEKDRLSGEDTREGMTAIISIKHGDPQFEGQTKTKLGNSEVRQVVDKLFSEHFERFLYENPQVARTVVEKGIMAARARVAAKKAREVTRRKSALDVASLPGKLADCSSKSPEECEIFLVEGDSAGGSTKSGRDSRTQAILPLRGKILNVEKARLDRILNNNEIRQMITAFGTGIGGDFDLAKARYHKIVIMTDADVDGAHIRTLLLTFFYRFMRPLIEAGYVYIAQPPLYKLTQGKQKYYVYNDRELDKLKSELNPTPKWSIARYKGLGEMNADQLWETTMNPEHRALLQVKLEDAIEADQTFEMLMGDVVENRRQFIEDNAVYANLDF
Chain of S. aureus (SAU) GyrB ATPase (P0AES4 whole entry, further chain): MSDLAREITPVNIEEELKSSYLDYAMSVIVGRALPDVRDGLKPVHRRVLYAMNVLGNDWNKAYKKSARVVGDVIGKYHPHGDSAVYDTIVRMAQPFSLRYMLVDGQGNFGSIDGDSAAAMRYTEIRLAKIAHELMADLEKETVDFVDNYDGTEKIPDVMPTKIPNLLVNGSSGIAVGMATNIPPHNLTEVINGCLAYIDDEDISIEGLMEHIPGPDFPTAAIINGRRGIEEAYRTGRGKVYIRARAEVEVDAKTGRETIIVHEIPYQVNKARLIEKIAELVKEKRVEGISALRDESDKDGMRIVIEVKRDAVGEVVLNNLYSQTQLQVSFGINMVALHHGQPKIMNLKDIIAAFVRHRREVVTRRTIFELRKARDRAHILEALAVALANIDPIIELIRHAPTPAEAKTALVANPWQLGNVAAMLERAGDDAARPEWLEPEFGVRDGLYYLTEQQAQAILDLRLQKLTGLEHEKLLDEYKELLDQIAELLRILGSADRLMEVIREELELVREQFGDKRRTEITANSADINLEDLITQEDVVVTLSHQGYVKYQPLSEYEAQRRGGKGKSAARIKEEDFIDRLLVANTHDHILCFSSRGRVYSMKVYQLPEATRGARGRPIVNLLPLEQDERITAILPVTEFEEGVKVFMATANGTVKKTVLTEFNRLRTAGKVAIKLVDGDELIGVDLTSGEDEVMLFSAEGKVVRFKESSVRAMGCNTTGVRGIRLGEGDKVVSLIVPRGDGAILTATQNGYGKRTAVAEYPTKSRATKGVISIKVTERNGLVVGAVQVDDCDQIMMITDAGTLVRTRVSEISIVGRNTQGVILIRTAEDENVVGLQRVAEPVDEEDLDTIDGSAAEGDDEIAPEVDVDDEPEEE

Row | SMILES | inhibition at 12.5 µM [1] | MIC (lowest concentration reducing growth by 80% or more) [2]
1 | CCCCNC(=O)c1nc(-c2ccc(NC(=O)NCC)nc2)sc1C(=O)O [Example 26, 4-[(Butylamino)carbonyl]-2-(6-{[(ethylamino)carbonyl]amino}pyridin-3-yl)-1,3-thiazole-5-carboxylic acid] | 70.5% | 2.0 µg/mL (≈ 5.11 µM)
2 | CCCCNC(=O)c1sc(-c2ccc(NC(=O)NCC)nc2)nc1C(=O)N(C)C [Example 158, N^5-butyl-2-(6-{[(ethylamino)carbonyl]amino}pyridin-3-yl)-N^4,N^4-dimethyl-1,3-thiazole-4,5-dicarboxamide] | 92.6% | 
3 | CCNC(=O)Nc1ccc(-c2nc(C(=O)N(C)C)c(C(=O)NC(C)(C)C)s2)cn1 [Example 159, N^5-(tert-butyl)-2-(6-{[(ethylamino)carbonyl]amino}pyridin-3-yl)-N^4,N^4-dimethyl-1,3-thiazole-4,5-dicarboxamide] | 95.3% | 
4 | CCNC(=O)Nc1cc(-c2nc(CC)cs2)c(-c2cccc(C(=O)N(C)C)c2)cn1 [Example 160, 3-[6-{[(ethylamino)carbonyl]amino}-4-(4-ethyl-1,3-thiazol-2-yl)pyridin-3-yl]-N,N-dimethylbenzamide] | 95.5% | 
5 | CCNC(=O)Nc1cc(-c2nc(CC)cs2)c(-c2cncc(C(=O)N(C)C)c2)cn1 [Example 161, 6′-{[(ethylamino)carbonyl]amino}-4′-(4-ethyl-1,3-thiazol-2-yl)-N,N-dimethyl-3,3′-bipyridine-5-carboxamide] | 101% | 
6 | CCCCNC(=O)c1nc(-c2cnc(NC(=O)NCC)cc2-c2nc(CC)cs2)sc1C(=O)N(C)C [Example 162, N^4-butyl-2-[6-{[(ethylamino)carbonyl]amino}-4-(4-ethyl-1,3-thiazol-2-yl)pyridin-3-yl]-N~5~,N~5~-dimethyl-1,3-thiazole-4,5-dicarboxamide] | 101% | 
7 | CCCCNC(=O)c1csc(-c2cnc(NC(=O)NCC)cc2-c2ccccc2)n1 [Example 163, N-butyl-2-(6-{[(ethylamino)carbonyl]amino}-4-phenylpyridin-3-yl)-1,3-thiazole-4-carboxamide] | 97.8% | 
8 | CCNC(=O)Nc1cc(-c2nc(C(C)(C)C)cs2)c(-c2cncc(C(=O)NC)c2)cn1 [Example 164, 4′-(4-tert-butyl-1,3-thiazol-2-yl)-6′-{[(ethylamino)carbonyl]amino}-N-methyl-3,3′-bipyridine-5-carboxamide] | 88.1% | 
